Experimental data: ChEMBL document CHEMBL4840323, “Discovery of an Orally Bioavailable Small-Molecule Inhibitor for the β-Catenin/B-Cell Lymphoma 9 Protein-Protein Interaction” (J Med Chem, 2021)
Calls of active or inactive are those of the source. The rule behind the calls is not given here.

How the values were obtained:
MCF-10A [1] = test: Induction of apoptosis in human MCF-10A cells assessed as early apoptotic cells at 40 uM measured after 72 hrs by annexinV-FITC/propidium iodide staining based flow cytometry (reference value: 28.9 %); assay type: cell-based
[2] = Half life in C57BL/6 mouse at 20 mg/kg, po via gavage measured up to 24 hrs by LC-MS/MS analysis; assay type: ADME, organism-based; details: in vivo
[3] = Cmax in C57BL/6 mouse at 20 mg/kg, po via gavage measured up to 24 hrs by LC-MS/MS analysis; assay type: ADME, organism-based; design: route oral, dose 20 mg/kg, time <=24; details: in vivo
MDA-MB-231 [4] = test: Antiinvasive activity against human MDA-MB-231 cells cultured as 3D-spheroids at 10 uM measured after 6 days by imaging analysis relative to control; assay type: functional; details: time 6 day
[5] = Intrinsic clearance in mouse liver microsomes at 1 uM measured up to 60 mins in presence of NADPH by LC-MS/SM analysis; assay type: ADME, Microsome; details: 1 h
[6] = Volume of distribution in C57BL/6 mouse at 1 mg/kg, iv measured after 5 mins by LC-MS/MS analysis; assay type: ADME, organism-based; details: in vivo
[7] = Half life in human liver microsomes at 1 uM measured up to 60 mins in presence of NADPH by LC-MS/SM analysis; assay type: ADME, Microsome; details: 1 h
MDA-MB-468 [8] = test: Antiproliferative activity against human MDA-MB-468 cells harboring empty pcDNA3.1 vector at 10 uM measured after 72 hrs by MTS assay; assay type: functional, cell-based
MDA-MB-468 [9] = test: Induction of apoptosis in human MDA-MB-468 cells assessed as late apoptotic cells at 10 uM measured after 72 hrs by annexinV-FITC/propidium iodide staining based flow cytometry (reference value: 13.9 %); assay type: functional
MCF-10A [10] = test: Induction of apoptosis in human MCF-10A cells assessed as late apoptotic cells at 20 uM measured after 72 hrs by annexinV-FITC/propidium iodide staining based flow cytometry (reference value: 13.9 %); assay type: cell-based
[11] = Solubility of the compound in DMSO/Tween-80/H2O (10/10/80) at 2 mg/ml; assay type: physicochemical
MCF-10A [12] = test: Induction of apoptosis in human MCF-10A cells assessed as late apoptotic cells at 40 uM measured after 72 hrs by annexinV-FITC/propidium iodide staining based flow cytometry (reference value: 13.9 %); assay type: cell-based
Mus musculus [13] = species on record: Mus musculus; details: dose 90.0 mg/kg, time 5.0 day
MDA-MB-231 [14] = test: cells; details: Homo sapiens, MDA-MB-231, 72 h
Description: Antiproliferative activity against human MDA-MB-231 cells assessed as cell growth inhibition measured after 72 hrs by MTS assay

[15] = AUC in C57BL/6 mouse at 1 mg/kg, iv measured after 5 mins by LC-MS/MS analysis; assay type: ADME, organism-based; design: route intravenous, dose 1 mg/kg, time 5 min; details: in vivo
SW480 [16] = test: Inhibition of Wnt/beta-catenin transactivation signalling in human SW480 cells assessed as relative activity at 6.25 uM measured after 24 hrs by TOPFlash reporter gene assay relative to control; assay type: cell-based; design: scale not given: the % may be the effect or the level left
MDA-MB-468 [17] = test: Induction of apoptosis in human MDA-MB-468 cells assessed as early apoptotic cells at 20 uM measured after 72 hrs by annexinV-FITC/propidium iodide staining based flow cytometry (reference value: 28.9 %); assay type: functional
MDA-MB-231 [18] = test: Antiinvasive activity against human MDA-MB-231 cells cultured as 3D-spheroids at 5 uM measured after 6 days by imaging analysis relative to control; assay type: functional; details: time 6 day
Mus musculus [19] = species on record: Mus musculus; details: dose 90.0 mg/kg, time 5.0 day; remark: listed apart in the source
MDA-MB-468 [20] = test: Inhibition of Wnt/beta-catenin transactivation signalling in Wnt3a stimulated human MDA-MB-468 cells assessed as relative activity at 12.5 uM measured after 24 hrs by TOPFlash reporter gene assay relative to control; assay type: cell-based; design: scale not given: the % may be the effect or the level left
SW480 [21] = test: Downregulation of HPRT mRNA expression in human SW480 cells at 10 to 40 uM measured after 24 hrs by qRT-PCR analysis; assay type: functional, cell-based; details: dose 10-40 µM
MCF-10A [22] = test: Induction of apoptosis in human MCF-10A cells assessed as late apoptotic cells at 10 uM measured after 72 hrs by annexinV-FITC/propidium iodide staining based flow cytometry (reference value: 13.9 %); assay type: cell-based
MDA-MB-468 [23] = test: Induction of apoptosis in human MDA-MB-468 cells assessed as late apoptotic cells at 20 uM measured after 72 hrs by annexinV-FITC/propidium iodide staining based flow cytometry (reference value: 13.9 %); assay type: functional
MDA-MB-231 [24] = test: Antiproliferative activity against human MDA-MB-231 cells harboring beta-catenin pcDNA3.1 vector at 20 uM measured after 72 hrs by MTS assay; assay type: functional, cell-based
MDA-MB-468 [25] = test: Antiproliferative activity against human MDA-MB-468 cells harboring beta-catenin pcDNA3.1 vector at 20 uM measured after 72 hrs by MTS assay; assay type: functional, cell-based
[26] = Intrinsic clearance in human liver microsomes at 1 uM measured up to 60 mins in presence of NADPH by LC-MS/SM analysis; assay type: ADME, Microsome
[27] = Half life in mouse liver microsomes at 1 uM measured up to 60 mins in presence of NADPH by LC-MS/SM analysis; assay type: ADME, Microsome; details: 1 h
Mus musculus [28] = species on record: Mus musculus; details: dose 90.0 mg/kg, time 5.0 day; remark: listed apart in the source
HCT-116 = test: cells; details: Homo sapiens, HCT-116, 72 h
Description: Antiproliferative activity against human HCT-116 cells assessed as cell growth inhibition measured after 72 hrs by MTS assay

MDA-MB-468 [29] = test: Inhibition of Wnt/beta-catenin transactivation signalling in Wnt3a stimulated human MDA-MB-468 cells assessed as relative activity at 25 uM measured after 24 hrs by TOPFlash reporter gene assay relative to control; assay type: cell-based; design: scale not given: the % may be the effect or the level left
MDA-MB-468 [30] = test: cells; details: Homo sapiens, MDA-MB-468, 72 h
Description: Antiproliferative activity against human MDA-MB-468 cells assessed as cell growth inhibition measured after 72 hrs by MTS assay

[31] = Cmax in C57BL/6 mouse at 1 mg/kg, iv measured after 5 mins by LC-MS/MS analysis; assay type: ADME, organism-based; design: route intravenous, dose 1 mg/kg, time 5 min; details: in vivo
MCF-10A [32] = test: Induction of apoptosis in human MCF-10A cells assessed as early apoptotic cells at 10 uM measured after 72 hrs by annexinV-FITC/propidium iodide staining based flow cytometry (reference value: 28.9 %); assay type: cell-based
MCF-10A [33] = test: cells; details: Homo sapiens, 72 h
Description: Cytotoxicity against human MCF-10A cells assessed as cell growth inhibition measured after 72 hrs by MTS assay

MDA-MB-231 [34] = test: Induction of apoptosis in human MDA-MB-231 cells assessed as early apoptotic cells at 40 uM measured after 72 hrs by annexinV-FITC/propidium iodide staining based flow cytometry (reference value: 5.3 %); assay type: functional
MDA-MB-231 [35] = test: Antiinvasive activity against human MDA-MB-231 cells cultured as 3D-spheroids at 40 uM measured after 6 days by imaging analysis relative to control; assay type: functional; details: time 6 day
[36] = AUC in C57BL/6 mouse at 20 mg/kg, po via gavage measured up to 24 hrs by LC-MS/MS analysis; assay type: ADME, organism-based; design: route oral, dose 20 mg/kg, time <=24; details: in vivo
[37] = Solubility of the compound in EtOH/saline (5/95) at 2 mg/ml; assay type: physicochemical; details: buffer
SW480 [38] = test: cells; details: Homo sapiens, SW480, 72 h
Description: Antiproliferative activity against human SW480 cells assessed as cell growth inhibition measured after 72 hrs by MTS assay

[39] = Clearance in C57BL/6 mouse at 20 mg/kg, po via gavage measured up to 24 hrs by LC-MS/MS analysis; assay type: ADME, organism-based; details: in vivo
Mus musculus [40] = species on record: Mus musculus; details: dose 90.0 mg/kg, time 5.0 day; remark: listed apart in the source

CC(C)(Oc1cccc(N2CCC[C@@H](C(=O)N(Cc3ccc(-c4cn[nH]c4)cc3)C3CC3)C2)c1)C(=O)N1CCNCC1.Cl
Activity (MCF-10A [1]): 3.9% | t1/2 [2]: 184 min | Cmax [3]: 3210 nM | Activity (MDA-MB-231 [4]): 47.5% | CLint [5]: 72 µL/min/mg | Vd [6]: 8 L/kg | t1/2 [7]: 38.4 min | Activity (MDA-MB-468 [8]): Active | Activity (MDA-MB-468 [9]): 17.6% | Activity (MCF-10A [10]): 17.3% | solubility [11]: Soluble | Activity (MCF-10A [12]): 15.3% | inhibition (Mus musculus [13]): Active | IC50 (MDA-MB-231 [14]): 28 µM | AUC [15]: 0.71 µM·h | Activity (SW480 [16]): 97% | Activity (MDA-MB-468 [17]): 34.6% | Activity (MDA-MB-231 [18]): 76.3% | inhibition (Mus musculus [19]): Active | Activity (MDA-MB-468 [20]): 96% | Activity (SW480 [21]): inactive | Activity (MCF-10A [22]): 12.3% | Activity (MDA-MB-468 [23]): 24.6% | Activity (MDA-MB-231 [24]): inactive | Activity (MDA-MB-468 [25]): inactive | CLint at 1 h, 1 µM [26]: 18 µL/min/mg | t1/2 [27]: 9.6 min | inhibition (Mus musculus [28]): Active | IC50 (HCT-116): 76 µM | Activity (MDA-MB-468 [29]): 89% | IC50 (MDA-MB-468 [30]): 9.6 µM | Cmax [31]: 790 nM | Activity (MCF-10A [32]): 1.9% | IC50 (MCF-10A [33]): 92 µM | Activity (MDA-MB-231 [34]): 53.1% | Activity (MDA-MB-231 [35]): 10.9% | AUC [36]: 11.71 µM·h | solubility [37]: Soluble | IC50 (SW480 [38]): 24 µM | CL/F [39]: 51.1 mL/min/kg | inhibition (Mus musculus [40]): Active
